# Laboratory results from publication PMC11600510 (Journal of Chemical Information and Modeling, 2024).
# Legend:
# Assay in all cases: Isozyme-specific CYP450 inhibition
# Assay type in all cases: in vitro ADME
# CYP1A2 = target: T1, CYP1A2 (Homo sapiens, UniProt P05177); details: recombinant human CYP1A2 with CYP450 reductase (Baculosomes), probe fluorescent substrate (not named)
# T1 construct: purchased Thermo Fisher Scientific; host or cells: Baculosomes
# T1 sequence (P05177 2-516 limits assumed): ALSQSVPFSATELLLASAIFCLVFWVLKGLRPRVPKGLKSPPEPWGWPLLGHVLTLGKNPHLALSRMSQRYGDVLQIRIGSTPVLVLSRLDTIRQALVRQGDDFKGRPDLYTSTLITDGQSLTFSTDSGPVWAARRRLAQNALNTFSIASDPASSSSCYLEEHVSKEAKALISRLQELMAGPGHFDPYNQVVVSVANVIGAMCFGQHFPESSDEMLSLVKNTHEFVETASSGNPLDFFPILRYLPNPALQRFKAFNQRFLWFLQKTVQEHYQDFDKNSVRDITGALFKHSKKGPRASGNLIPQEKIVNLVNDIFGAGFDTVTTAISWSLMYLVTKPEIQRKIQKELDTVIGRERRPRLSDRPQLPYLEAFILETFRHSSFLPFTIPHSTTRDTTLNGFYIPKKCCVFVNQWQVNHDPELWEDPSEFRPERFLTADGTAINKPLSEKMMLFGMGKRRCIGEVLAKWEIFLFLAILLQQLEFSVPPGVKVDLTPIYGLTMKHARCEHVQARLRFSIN
# Procedure: (§1) For this, the activity of CYP1A2, CYP2A6, CYP2B6, CYP2C9, CYP2C19, CYP2D6, and CYP3A4 was assessed after the administration of CKP-25 at 1 μM to determine (a) the oxidative (CYP-mediated) metabolic stability profile in question and (b) the enzyme metabolizing isoforms responsible (the test system consists of recombinant human CYP450 and CYP450 reductase; cytochrome b5 may also be present). Herein, no concentration-dependent effects were reported. […] No product inhibition or mechanism-based inactivation of the CYP450 isoenzymes in question was obtained. Test-compounds with poor solubility can show artificially low CYP450 inhibition and thus, chemical entities with potential drug–drug interaction toxicities may be overlooked.
# (§2) Human cytochrome P450 (CYP450) isoenzymes were expressed in Baculosomes obtained from Thermo Fisher Scientific (Waltham, MA, USA). Reagents were handled and prepared following the manufacturer’s guidelines. Compound CKP-25 was evaluated at a concentration of 1 μM according to our established standard operating procedures and protocols as described previously.[127],[128] The enzymatic activity of various CYP450 isoforms (CYP1A2, CYP2A6, CYP2B6, CYP2C9, CYP2C19, CYP2D6, and CYP3A4) was measured, considering the kinetic model for each isoform. The reactions were conducted in triplicate at 20 °C. NADP+ (10 mM in 100 mM potassium phosphate, pH 8.0) was converted to NADPH using a regeneration system containing glucose-6-phosphate (333 mM) and glucose-6-phosphate dehydrogenase (30 U/mL in 100 mM potassium phosphate, pH 8.0). Upon the addition of the fluorescent substrate, signal monitoring was performed immediately (within 2 min) using appropriate excitation and emission wavelengths, recorded by an Agilent BioTek Lionheart FX (Winooski, VT, USA). CYP450 inhibition (%) was calculated based on the reaction rates (fluorescence intensity changes per unit time). In total, n = 60 meaurements per minute were recorded over a 60 min period. [drawing 2] where X, the rate observed in the presence of a test-compound; A, the rate observed in the presence of negative (solvent, DMSO) control.
# CYP3A4 = target: T2, CYP3A4 (Homo sapiens, UniProt P08684); details: recombinant human CYP3A4 with CYP450 reductase (Baculosomes), probe fluorescent substrate (not named)
# T2 construct: purchased Thermo Fisher Scientific; host or cells: Baculosomes
# Procedure: as §1, §2
# CYP2A6 = target: T3, CYP2A6 (Homo sapiens, UniProt P11509); details: recombinant human CYP2A6 with CYP450 reductase (Baculosomes), probe fluorescent substrate (not named)
# T3 construct: purchased Thermo Fisher Scientific; host or cells: Baculosomes
# T3 sequence (P11509 1-494): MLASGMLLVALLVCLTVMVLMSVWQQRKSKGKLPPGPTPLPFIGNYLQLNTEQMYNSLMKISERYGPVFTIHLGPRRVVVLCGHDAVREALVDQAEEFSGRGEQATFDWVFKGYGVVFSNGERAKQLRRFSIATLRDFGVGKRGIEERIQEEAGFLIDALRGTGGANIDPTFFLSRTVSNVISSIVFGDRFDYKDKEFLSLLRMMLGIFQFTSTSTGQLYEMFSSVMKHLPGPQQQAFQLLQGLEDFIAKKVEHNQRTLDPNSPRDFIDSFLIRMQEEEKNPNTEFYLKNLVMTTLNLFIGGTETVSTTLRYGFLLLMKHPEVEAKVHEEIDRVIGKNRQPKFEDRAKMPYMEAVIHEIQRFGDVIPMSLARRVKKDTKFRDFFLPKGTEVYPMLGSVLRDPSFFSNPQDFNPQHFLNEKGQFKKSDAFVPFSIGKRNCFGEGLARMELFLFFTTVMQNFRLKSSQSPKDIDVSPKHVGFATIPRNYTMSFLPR
# Procedure: as §1, §2
# CYP2C19 = target: T4, CYP2C19 (Homo sapiens, UniProt P33261); details: probe fluorescent substrate (not named)
# T4 construct: purchased Thermo Fisher Scientific; host or cells: Baculosomes
# Procedure: as §1, §2
# T4 sequence (P33261 whole entry): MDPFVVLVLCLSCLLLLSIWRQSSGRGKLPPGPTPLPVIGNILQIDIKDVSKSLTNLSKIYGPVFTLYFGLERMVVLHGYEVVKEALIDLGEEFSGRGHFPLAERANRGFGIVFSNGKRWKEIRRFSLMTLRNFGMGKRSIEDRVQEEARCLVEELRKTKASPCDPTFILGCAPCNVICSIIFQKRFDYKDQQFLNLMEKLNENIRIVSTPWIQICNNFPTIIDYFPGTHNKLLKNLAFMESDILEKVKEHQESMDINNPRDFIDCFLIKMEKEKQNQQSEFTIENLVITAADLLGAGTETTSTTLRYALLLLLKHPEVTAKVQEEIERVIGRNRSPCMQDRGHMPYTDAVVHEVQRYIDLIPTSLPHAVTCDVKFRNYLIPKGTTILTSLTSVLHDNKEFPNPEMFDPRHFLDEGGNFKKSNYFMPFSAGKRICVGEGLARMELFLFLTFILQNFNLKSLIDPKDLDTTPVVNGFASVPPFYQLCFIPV
# T2 sequence (P08684 2-503 limits assumed): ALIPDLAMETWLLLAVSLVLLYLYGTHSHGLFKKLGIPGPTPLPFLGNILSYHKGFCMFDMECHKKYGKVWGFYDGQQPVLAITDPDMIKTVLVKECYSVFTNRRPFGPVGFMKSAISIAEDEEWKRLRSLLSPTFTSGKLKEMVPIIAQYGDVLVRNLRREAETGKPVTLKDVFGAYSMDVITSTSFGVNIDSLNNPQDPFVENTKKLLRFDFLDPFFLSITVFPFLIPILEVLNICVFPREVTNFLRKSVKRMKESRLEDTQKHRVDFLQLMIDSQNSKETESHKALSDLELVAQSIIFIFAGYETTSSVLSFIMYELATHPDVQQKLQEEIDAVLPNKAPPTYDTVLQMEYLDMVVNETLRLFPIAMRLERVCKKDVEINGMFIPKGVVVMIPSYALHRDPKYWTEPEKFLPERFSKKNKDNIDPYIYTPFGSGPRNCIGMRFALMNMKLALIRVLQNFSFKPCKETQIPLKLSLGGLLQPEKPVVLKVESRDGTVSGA
smiles,measurement,setting,value
"COc1cccc2c1ncn2Cc1ccc2ccccc2c1 [CKP-25, 4-Methoxy-1-(naphthalen-2-ylmethyl)-1H-benzo[d]imidazole]","inhibition at 60 min, 1 µM",CYP1A2,0%
same,"inhibition at 60 min, 1 µM",CYP3A4,3%
same,"inhibition at 60 min, 1 µM",CYP2A6,6%
same,"inhibition at 60 min, 1 µM",CYP2C19,20%
